≈ marks a conversion by molar mass, not a printed value.
Legend:
[1] = tested on: Tetrahymena pyriformis W; test: Antiprotozoal activity, growth inhibition by serial dilution method; type: cell-based; details: 28° C., 44 to 48 hours, pH 7.0, serial dilution method, read-out: Antiprotozoal activity, MIC (minimal inhibitory concentration)
Method: Antiprotozoal activity of compound (I) was assayed with Tetrahymena pyriformis W as the test organism and a medium composed of 20 g tryptose-peptone (Difco Co.), 1 g yeast extract, 2 g glucose, 1000 ml distilled water, 10 ml 1 M phosphate buffer (pH 7.0) as the assay medium. The microorganism was incubated at 28° C. for 44 to 48 hours and the growth inhibitory activity of compound (I) was assayed by the serial dilution method.

[2] = tested on: melanoma B-16; test: Antitumor therapeutic test in mice (life span prolongation), melanoma B-16 intraperitoneally transplanted, NCI-protocol 1,300; type: in vivo, mouse; details: i.p. once daily for 9 consecutive days
Method: Therapeutic tests were carried out in mice according to NCI-protocol 1,300, Cancer Chemother, Reports, Part 3, 1972 , Vol.3, No.2, in which melanoma B-16 tumor cells had been intraperitoneally transplanted, compound (I) being administered intraperitoneally once daily for 9 consecutive days.

COC1C=CC=C(C)Cc2cc(OS(=O)(=O)c3ccc(C)cc3)c(Cl)c(c2)N(C)C(=O)CC(OC(=O)C(C)C)C2(C)OC2C(C)C2CC1(O)NC(=O)O2 (stereo not drawn) [PDM-3-C20-p-toluenesulfonate]
MIC [1]: 1 to 2 mg/L (≈ 1.29 to 2.58 µM)

COC1C=CC=C(C)Cc2cc(OS(C)(=O)=O)c(Cl)c(c2)N(C)C(=O)CC(OC(=O)C(C)C)C2(C)OC2C(C)C2CC1(O)NC(=O)O2 (stereo not drawn) [PDM-3-C20-methenesulfonate, PDM-3-C20-methanesulfonate]
Antitumor activities B-16 (T/C %), life span prolongation ([2]; 6.2 μg/kg): 154%
Antitumor activities B-16 (T/C %), life span prolongation ([2]; 12.5 μg/kg): 195%
Antitumor activities B-16 (T/C %), life span prolongation ([2]; 25 μg/kg): 178%
Antitumor activities B-16 (T/C %), life span prolongation ([2]; 50 μg/kg): 189%
Antitumor activities B-16 (T/C %), life span prolongation ([2]; 100 μg/kg): 218%
Antitumor activities B-16 (T/C %), life span prolongation ([2]; 200 μg/kg): 246%

COC1C=CC=C(C)Cc2cc(OS(=O)(=O)c3ccc(Cl)cc3)c(Cl)c(c2)N(C)C(=O)CC(OC(=O)C(C)C)C2(C)OC2C(C)C2CC1(O)NC(=O)O2 (stereo not drawn) [PDM-3-C20-p-chlorobenzenesulfonate]
MIC [1]: 2 mg/L (≈ 2.51 µM)

COC1C=CC=C(C)Cc2cc(OS(=O)(=O)c3ccc(N)cc3)c(Cl)c(c2)N(C)C(=O)CC(OC(=O)C(C)C)C2(C)OC2C(C)C2CC1(O)NC(=O)O2 (stereo not drawn) [PDM-3-C20-p-aminobenzenesulfonate]
MIC [1]: 2 to 4 mg/L (≈ 2.58 to 5.15 µM)

Source: US4264596A, “Maytansinoids, pharmaceutical compositions thereof and method of use thereof” (Takeda Chemical Industries, Ltd., priority 1980, dated 1981)
